Columns and labels:
[1] = test system: Gram positive Streptococci; test: Anti-bacterial activity, agar well zone of inhibition; format: cell-based; details: 50 μL of 5 mg/mL suspension in 0.4 cm wells, 37° C. for 48 hours
Protocol: (§1) Nutrient broth was prepared by dissolving 0.2 g in 25 mL distilled water in erlenmeyer flask. The flask was then sterilized in an autoclave at the 121° C. for 15 minutes after applying cotton plug to cover its mouth. This growth media was utilized to prepare inoculums of all strains of bacteria. After adding a loop full of bacterial strain in it, the flask was placed in shaking incubator at 37° C. for the night. The plates were inoculated after the incubated broth was diluted up to 10^−2.
(§2) 0.8 g nutrient broth and 2 g of agar were added to 100 mL autoclaved water in an erlenmeyer flask. Apply cotton plug to the flask and then sterilize it in an autoclave at the 121° C. for 15 minutes. Each petri plate was poured with 15-20 mL of agar which was then solidified and inoculated with the bacterial strain. 50 μL of sample suspension was poured in wells that have the diameter of 0.4 cm. All sample suspensions were made by adding 5 mg of product in 1 mL distilled water. Zones of inhibition were observed after keeping these plates at 37° C. for 48 hours.

[2] = test system: Gram positive cocci (Separate); test: as above; format: cell-based; details: 48 h
Protocol: as §1, §2

[3] = test system: Gram positive sarccina; test: as above; format: cell-based; details: 50 μL of 5 mg/mL suspension in 0.4 cm wells, 37° C. for 48 hours
Protocol: as §1, §2

[4] = In-vitro drug release / drug entrapment efficiency in PBS by UV spectroscopy at 278 nm; format: physicochemical
Protocol: 30 mg of CHL-loaded nanoparticles were dispersed and homogenized in 100 mL of PBS, pH 7.4 (purchased from Sigma Aldrich) which releases all entrapped CHL from the nanocomposite. Before homogenization, nanocomposite formulation was cleared from free drug molecules by washing with distilled water. Ultraviolet (UV) spectroscopy at a wavelength of 278 nm was employed for completely developing entire content of entrapped chloramphenicol in triplicates. A solution of drug-free nanocomposite (30 mg) in distilled water was employed as a reference, thus reducing the chances of interference by excipients and polymer used to prepare the nanocomposite. Following equation was utilized to evaluate drug entrapment efficiency (DEE) value, as was reported in a paper by Harilall S, Choonara Y E. et al. %DEE=D1/D2*100 Where D1 is the actual quantity of drug (mg/100 mL) and D2 is the theoretical quantity of drug (mg/100 mL) entrapped within the formulation. Precision of the results was made certain by calculating the average DEE of five samples.
An in-vitro drug release study was conducted on the basis of a paper reported by Harilall S, Choonara Y E. et al. for the zidovudine release study. CHL-loaded nanocomposite, nanocomposite and commercially available CHL were submerged in 100 mL PBS discretely and then sited these set of preparations in an orbital shaking incubator (20 rpms, 37° C.). Portions of these preparations were taken at altered time interims for 48 hours and substituted by equal quantities of buffer solution and were evaluated by UV spectroscopy for CHL absorption at a wavelength of 278 nm.

`O=C(N[C@H](CO)[C@H](O)c1ccc([N+](=O)[O-])cc1)C(Cl)Cl` [CHL, chloramphenicol] gave a zone of inhibition at 5000 µg/mL [1] of 6 mm, a zone of inhibition at 5000 µg/mL [2] of 4 mm and a zone of inhibition at 5000 µg/mL [3] of 2 mm. The “Time in which almost the whole drug is released” value ([4]; PBS) was 3 to 4 h, the “DEE (FIG. 7, in-vitro drug release)” value ([4]; first hour of exposure to PBS, 37° C.) was 91% and the “DEE (FIG. 7, in-vitro drug release)” value ([4]; fourth hour in PBS (third of the next three hours)) was 97%. For the same molecule, the “DEE (FIG. 7, in-vitro drug release)” value ([4]; second hour in PBS (first of the next three hours)) was 94% and the “DEE (FIG. 7, in-vitro drug release)” value ([4]; third hour in PBS (second of the next three hours)) was 97%.

From patent US9393313B2, “Drug entrapment efficiency and sustained drug release of chloramphenicol loaded polymeric-iron nanoparticles” (priority 2014, dated 2016)
